Reference: PubChem BioAssay (NCI)
Values joined by “and” are separate entries in the source; they are usually repeats but may differ in a detail not shown here. Equal values may be shown once.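 96-well plates; 48 h exposure; 5 concentrations. Endpoints by linear interpolation between flanking doses. Not reached: highest tested concentration assigned. At the GI50, growth is halved. The concentration for full growth arrest is given as TGI.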

Key:
Assay in all cases: NCI anticancer screen, dose series, 48 h
SK-MEL-2 melanoma = system: SK-MEL-2 melanoma
DU-145 prostate = system: DU-145 prostate
U251 CNS = system: U251 CNS
PC-3 prostate = system: PC-3 prostate
NCI/ADR-RES ovarian = system: NCI/ADR-RES ovarian
NCI-H226 lung = system: NCI-H226 lung
SK-MEL-28 melanoma = system: SK-MEL-28 melanoma
UO-31 renal = system: UO-31 renal
SF-295 CNS = system: SF-295 CNS
M14 melanoma = system: M14 melanoma

SMILES	TGI (SK-MEL-2 melanoma)	TGI (DU-145 prostate) [µM]	TGI (U251 CNS) [µM]	TGI (PC-3 prostate) [µM]	TGI (NCI/ADR-RES ovarian) [µM]	TGI (NCI-H226 lung) [µM]	TGI (SK-MEL-28 melanoma) [µM]	TGI (UO-31 renal) [µM]	TGI (SF-295 CNS) [µM]	TGI (M14 melanoma)	GI50 (SK-MEL-2 melanoma)	GI50 (DU-145 prostate)	GI50 (U251 CNS)	GI50 (PC-3 prostate)	GI50 (NCI/ADR-RES ovarian)	GI50 (NCI-H226 lung)	GI50 (SK-MEL-28 melanoma)	GI50 (UO-31 renal)	GI50 (SF-295 CNS)	GI50 (M14 melanoma)
N#C/C(=C\Nc1ccccn1)C(=O)c1ccco1	> 100 µM	> 100	> 100	> 100	> 100	> 100	> 100	> 100	> 100	> 100 µM	–	–	–	–	–	–	–	–	–	–
O=C(/C=C/c1cccc([N+](=O)[O-])c1)c1ccc(O)c(CN2CCN(c3cc4c(cc3F)c(=O)c(C(=O)O)cn4C3CC3)CC2)c1	5.17 µM	2.74	2.62	5.37	9.34	15.2	3.2	2.67	3.9	–	2.35 µM	1.41 µM	1.17 µM	1.85 µM	2.85 µM	3.49 µM	1.75 µM	1.29 µM	1.88 µM	–
Cc1cccc(Cl)c1NC(=O)c1cnc(Nc2cc(N3CCOCC3)cc(N3CCOCC3)c2)s1	> 10 µM	> 3.6	> 10	> 10	> 10	> 10	> 10	0.789	> 10	> 10 µM	> 5.25 µM	0.163 µM	> 3.85 µM	0.152 µM	1.05 µM	0.601 µM	> 5.32 µM	0.0067 µM	0.154 µM	4.18 µM
CCN(CC)CCCC(C)Nc1c2ccc(Cl)cc2nc2cc(OC)c(OC)cc12 (stereo not given)	5.73 µM	11.2	–	6.28	9.69	5.39	3.37	2.89	3.24	3.56 µM	2.64 µM	2.02 µM	–	2.08 µM	2.47 µM	1.47 µM	1.72 µM	1.43 µM	1.5 µM	1.88 µM
COc1cc2c(cc1OC)-c1ccc3cc4c(cc3c1N(CCN(C)C)C2)OCO4	16.7 µM	8.76	1.23	6.06	45.6	2.52	17.3	5.77	8.28	4.85 µM	3.36 µM	0.377 µM	0.215 µM	0.411 µM	10.9 µM	0.772 µM	3.04 µM	1.77 µM	0.4 µM	0.43 µM
c1ccc(Nn2c(CCCCCCCCc3nnc(COc4ccccc4)n3Nc3ccccc3)nnc2COc2ccccc2)cc1	> 63.4 µM and 252 µM	> 300	> 300	> 300	> 300	> 300	> 300	> 300	–	> 60.1 µM and 50.2 µM	13.8 µM and 25.5 µM	35 µM and > 300 µM	39.6 µM and 144 µM	8.32 µM and 23.9 µM	11.5 µM and 20.6 µM	15.6 µM and 70.9 µM	22.9 µM and 57.1 µM	5.27 µM and 8.49 µM	1.24 µM and 7.51 µM	6.24 µM and 4.23 µM
